pIC50: −log10 of the molar value.

The test system of experiment [1] is HepG2. Nature of the experiment: Antiproliferative activity against human HepG2 cells assessed as inhibition of cell growth incubated for 48 hrs by MTT assay. The class given is functional, cell-based. The conditions noted are these: HepG2, 48 h. A general note: Formazan colour is commonly taken as a measure of viable cells.
The subject of experiment [2] is HCT-116. Nature of the experiment: Antiproliferative activity against human HCT-116 cells assessed as inhibition of cell growth incubated for 48 hrs by MTT assay. In kind it is functional, cell-based. To be noted: HCT-116, 48 h.
For experiment [3], the system named is A549. Nature of the experiment: Antiproliferative activity against human A549 cells assessed as inhibition of cell growth incubated for 48 hrs by MTT assay. In kind it is functional, cell-based. To be noted: A549, 48 h.
In experiment [4] the test system is MDA-MB-231. The experiment is described as follows: Antiproliferative activity against human MDA-MB-231 cells assessed as inhibition of cell growth incubated for 48 hrs by MTT assay. The class given is functional, cell-based. To be noted: MDA-MB-231, 48 h.
The test system of experiment [5] is HCT-116. Nature of the experiment: Induction of cell cycle arrest in human HCT-116 cells assessed as G1 phase cells at 20 nM measured after 48 hrs by propidium iodide/RNase staining based flow cytometry analysis (reference value: 61.51 %). In kind it is functional.
Experiment [6] relates to HCT-116. The experiment is described as follows: Induction of cell cycle arrest in human HCT-116 cells assessed as S phase cells at 20 nM measured after 48 hrs by propidium iodide/RNase staining based flow cytometry analysis (reference value: […] %). The class given is functional.
Experiment [7] deals with HCT-116. Nature of the experiment: Induction of cell cycle arrest in human HCT-116 cells assessed as increase in G2/M phase cells at 20 nM measured after 48 hrs by propidium iodide/RNase staining based flow cytometry analysis (reference value: […] %). In kind it is functional.

What is called pIC50 is the negative decadic logarithm of the IC50, by convention in mol/L. Consider `COc1cc(C(=O)c2cn3cc(Br)nc(Cl)c3n2)cc(OC)c1OC`, for which the negative-log IC50 (pIC50) in experiment [1] was 5.29; in experiment [2] it was 5.79; in experiment [3], 5.08; in experiment [4], 5.17.
For `COc1cc(C(=O)c2cn3ccc(F)cc3n2)cc(OC)c1OC`, in that order: below 5.00, below 5.00, below 5.00 and below 5.00.
For `COc1cc(-c2nccn3cc(-c4ccc(Cl)cc4)nc23)cc(OC)c1OC`, in that order: 6.32, 6.45, 5.14 and 5.68.
For `COc1cc(-c2nccn3cc(-c4ccc(N)cc4)nc23)cc(OC)c1OC`, in that order: 6.60, 6.80, 6.54 and 6.53.
In the case of `COc1cc(C(=O)c2cn3ccnc(-c4ccc(F)cc4)c3n2)cc(OC)c1OC`, the pIC50 in experiment [1], in experiment [2], in experiment [3] and in experiment [4] was below 5.00 throughout.
In the case of `COc1cc(-c2nccn3cc(-c4ccccc4)nc23)cc(OC)c1OC`, the pIC50 is 6.57 in experiment [1], 6.58 in experiment [2], 6.42 in experiment [3] and 6.44 in experiment [4].
For `COc1cc(C(=O)c2cn3ccc(C)cc3n2)cc(OC)c1OC`, in that order: 5.17, 5.51, below 5.00 and 5.03.
For `COc1ccn2cc(C(=O)c3cc(OC)c(OC)c(OC)c3)nc2c1`, in that order: 5.38, 5.19, below 5.00 and below 5.00.
For `COc1cc(-c2nccn3cc(-c4ccc(F)cc4)nc23)cc(OC)c1OC`, in that order: 6.66, 6.58, 6.86 and 6.40.
As for `COc1ccc(-c2cn3ccnc(-c4cc(OC)c(OC)c(OC)c4)c3n2)cc1N`, the pIC50 in experiment [1] was 6.91; in experiment [2], 6.91; in experiment [3] it was 6.51; in experiment [4], 6.95.
Turning to `COc1cc2c(c(OC)c1OC)-c1ccc(OC)c(=O)cc1[C@@H](NC(C)=O)CC2` [COLCHICINE], the negative logarithm of the IC50 (pIC50) in experiment [1] was 7.27; in experiment [2] it was 7.96; in experiment [3], 6.74; in experiment [4], 6.75. Moreover, the Activity in experiment [5] is listed as 24.07%; in experiment [6], 15.12%; in experiment [7], 60.81%.
For the compound `COc1cc(C(=O)c2cn3ccc(C)c([N+](=O)[O-])c3n2)cc(OC)c1OC`, the negative logarithm of the IC50 (pIC50) in experiment [1], in experiment [2], in experiment [3] and in experiment [4] was below 5.00 throughout.
For `COc1cc(C(=O)c2cn3ccnc(-c4ccc5[nH]ccc5c4)c3n2)cc(OC)c1OC`, the negative-log IC50 (pIC50) in experiment [1] is below 5.00; in experiment [2], 6.16; in experiment [3], below 5.00; in experiment [4], below 5.00.
Regarding `COc1cc(C(=O)c2cn3c(C(C)C)cccc3n2)cc(OC)c1OC`, the pIC50 in experiment [1], in experiment [2], in experiment [3] and in experiment [4] was below 5.00 throughout.
As to `COc1cc(-c2nccn3cc(-c4ccc(O)cc4)nc23)cc(OC)c1OC`, the negative-log IC50 (pIC50) in experiment [1] is 6.08; in experiment [2], 6.05; in experiment [3] it was below 5.00; in experiment [4], below 5.00.
For the compound `COc1cc(C(=O)c2cn3cc(Cl)cc(C(F)(F)F)c3n2)cc(OC)c1OC`, the pIC50 in experiment [1], in experiment [2], in experiment [3] and in experiment [4] was below 5.00 throughout.
Take `COc1cc(C(=O)c2cn3ccnc(-c4ccccc4)c3n2)cc(OC)c1OC`: the pIC50 was below 5.00 in experiment [1], 5.71 in experiment [2], 5.40 in experiment [3] and below 5.00 in experiment [4].
As to `COc1ccc(-c2cn3ccnc(-c4cc(OC)c(OC)c(OC)c4)c3n2)cc1`, the pIC50 in experiment [1] was 6.69; in experiment [2], 6.72; in experiment [3], 6.34; in experiment [4], 6.98.
Turning to `COc1cc(-c2nccn3cc(-c4ccc([N+](=O)[O-])cc4)nc23)cc(OC)c1OC`, the pIC50 in experiment [1], in experiment [2], in experiment [3] and in experiment [4] was below 5.00 in each case.
For the compound `COc1cc(-c2nccn3cc(-c4ccc(C(F)(F)F)cc4)nc23)cc(OC)c1OC`, the negative logarithm of the IC50 (pIC50) was 5.58 in experiment [1], below 5.00 in experiment [2], below 5.00 in experiment [3] and below 5.00 in experiment [4].
For `COc1cc(C(=O)c2cn3ccc(C(F)(F)F)cc3n2)cc(OC)c1OC`, the pIC50 in experiment [1], in experiment [2], in experiment [3] and in experiment [4] was below 5.00 each time.
Consider `COc1cc(C(=O)c2cn3ccnc(-c4ccc(C)cc4)c3n2)cc(OC)c1OC`, for which the pIC50 is below 5.00 in experiment [1], below 5.00 in experiment [2], 5.10 in experiment [3] and below 5.00 in experiment [4].
As for `COc1ccc(-c2cn3ccnc(-c4cc(OC)c(OC)c(OC)c4)c3n2)cc1[N+](=O)[O-]`, the pIC50 in experiment [1], in experiment [2], in experiment [3] and in experiment [4] was below 5.00 each time.
As to `COc1ccc(-c2cn3ccnc(-c4cc(OC)c(OC)c(OC)c4)c3n2)cc1O`, the pIC50 in experiment [1] is 7.06; in experiment [2], 7.13; in experiment [3] it was below 5.00; in experiment [4], below 5.00.
With `COc1cc(-c2nccn3cc(-c4ccc(C)cc4)nc23)cc(OC)c1OC`, the negative logarithm of the IC50 (pIC50) in experiment [1] is 6.80; in experiment [2], 7.13; in experiment [3], 6.87; in experiment [4], 7.28.

The values above are taken from ChEMBL document CHEMBL5150065, “Design, synthesis, and bioevaluation of imidazo [1,2-a] pyrazine derivatives as tubulin polymerization inhibitors with potent anticancer activities” (Bioorg Med Chem, 2022).
